Data reported in patent US20220002279A1, “NOVEL IMIDAZOLE DERIVATIVE” (priority 2018, published 2022).
Converted amounts (≈) assume the structure as drawn.

Columns and labels:
[1] = target: T1, Escherichia coli LpxC enzyme (Escherichia coli, UniProt P0A725); experiment: Inhibitory activity on Escherichia coli LpxC enzyme (fluorescamine method); assay type: biochemical; conditions: fluorescamine detection; 3.1 nmol/L enzyme, 20 μmol/L substrate, pH 6.5, 120 min; read-out: IC50 (inhibitory activity on Escherichia coli LpxC enzyme, Fluoresamine method)
T1 construct: made in house; host or cells: Escherichia coli
T1 sequence (P0A725 1-305): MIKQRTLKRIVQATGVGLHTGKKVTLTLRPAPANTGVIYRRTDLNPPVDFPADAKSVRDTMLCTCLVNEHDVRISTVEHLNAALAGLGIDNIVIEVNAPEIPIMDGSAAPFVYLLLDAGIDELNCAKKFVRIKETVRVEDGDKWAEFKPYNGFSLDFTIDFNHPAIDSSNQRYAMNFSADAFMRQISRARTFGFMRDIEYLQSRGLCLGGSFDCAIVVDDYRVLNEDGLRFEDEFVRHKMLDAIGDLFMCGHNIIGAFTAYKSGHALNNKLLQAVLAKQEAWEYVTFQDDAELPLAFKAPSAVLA
How it was run: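 LpxC reacted with UDP-3-O-(R-3-hydroxymyristoyl)-N-acetylglucosamine; product amine quantified after fluorescamine stop and pH 8.0 phosphate buffer addition, at 390 nm/495 nm. Inhibition curve built from a range of test compound concentrations.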

[2] = test system: Klebsiella pneumoniae strain ATCC13883; experiment: Antimicrobial activity, MIC by broth microdilution; assay type: cell-based; conditions: ATCC13883, cation-adjusted Mueller-Hinton broth, about 5×10^5 CFU/mL, 35° C., about 18 hours, read-out: MIC Klebsiella pneumoniae ATCC13883
How it was run: (§1)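 CLSI-based broth microdilution in cation-adjusted Mueller-Hinton broth, inoculum about 5×10^5 CFU/mL from overnight heart infusion agar culture. Incubation 35° C. about 18 h; MIC is the lowest concentration with no visible growth.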

[3] = test system: Pseudomonas aeruginosa strain ATCC27853; experiment: Antimicrobial activity, MIC by broth microdilution; assay type: cell-based; conditions: ATCC27853, 18 h, cation-adjusted Mueller-Hinton broth, about 5×10^5 CFU/mL, 35° C., about 18 hours, read-out: MIC Pseudomonas aeruginosa ATCC27853
How it was run: as §1

[4] = test system: Escherichia coli strain ATCC25922; experiment: Antimicrobial activity, MIC by broth microdilution; assay type: cell-based; conditions: ATCC25922, 18 h, cation-adjusted Mueller-Hinton broth, about 5×10^5 CFU/mL, 35° C., about 18 hours, read-out: MIC Escherichia coli ATCC25922
How it was run: as §1

[5] = target: T2, Pseudomonas aeruginosa LpxC enzyme (Pseudomonas aeruginosa, UniProt P47205); experiment: Inhibitory activity on Pseudomonas aeruginosa LpxC enzyme (fluorescamine method); assay type: biochemical; conditions: fluorescamine detection; 3.6 nmol/L enzyme, 20 μmol/L substrate, pH 8.0, 60 min
T2 construct: made in house; host or cells: Escherichia coli
T2 sequence (P47205 1-303): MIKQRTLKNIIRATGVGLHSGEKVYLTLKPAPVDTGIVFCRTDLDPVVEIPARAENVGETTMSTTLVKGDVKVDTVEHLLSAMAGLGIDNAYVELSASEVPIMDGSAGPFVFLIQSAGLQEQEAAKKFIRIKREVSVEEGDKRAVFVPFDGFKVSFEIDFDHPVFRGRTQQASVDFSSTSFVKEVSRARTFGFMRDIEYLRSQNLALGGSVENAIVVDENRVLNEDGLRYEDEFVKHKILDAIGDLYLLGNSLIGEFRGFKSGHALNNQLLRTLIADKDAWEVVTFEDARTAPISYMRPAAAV
Source text: Test Example 1 Evaluation of the Inhibitory Activity on Pseudomonas aeruginosa LpxC Enzyme (Fluoresamine Method)
To assay the activity of Pseudomonas aeruginosa LpxC enzyme, LpxC was reacted with its substrate, UDP-3-O-(R-3-hydroxydecanoyl)-N-acetylglucosamine, and the amount of the reaction product was quantified by the amino groups present in the product.
Specifically, to 3.6 nmol/L Pseudomonas aeruginosa LpxC enzyme (as acquired by preparing chromosomal DNA from Pseudomonas aeruginosa, obtaining the Pseudomonas aeruginosa LpxC genes by PCR (polymerase chain reaction) using LpxC specific primer, and incorporating the genes into a vector, followed by expression using Escherichia coli), 20 μmol/L UDP-3-O-(R-3-hydroxydecanoyl)-N-acetylglucosamine (Carbosynth) was added, and the mixture was incubated at room temperature for 60 minutes. This reaction was performed in a 40 mmol/L-HEPES buffer solution (pH 8.0) containing 0.02% Brij 35 and 25 nmol/L-zinc chloride. The reaction was terminated by the addition of 1.0 mg/mL-fluorescamine dissolved in a solvent obtained by mixing an equal amount of acetonitrile and dimethylformamide with the reaction mixture, and then, a 0.2 mol/L-sodium phosphate buffer solution (pH 8.0) was added thereto, and the amount of the reaction product was detected at an excitation wavelength/fluorescence wavelength=390 nm/495 nm. An inhibition curve was obtained by performing the aforementioned reaction in the presence of various concentrations of test compounds. From this inhibition curve, the concentration of test compound at which the amount of the reaction product was suppressed by 50% (IC50 value) was determined, which was used as an index for the inhibitory activity on Pseudomonas aeruginosa LpxC enzyme.

Compound	IC50 [1] [nM]	MIC [2] [µg/mL]	MIC [3] [µg/mL]	MIC [4] [µg/mL]	IC50 [5] [nM]
C[C@H](O)c1nccn1Cc1cc(-c2ccc(C#CC3CC3CO)cc2)on1 (stereo in doubt) [Compound 7, (1S)-1-(1-{[5-(4-{[trans-2-(hydroxymethyl)cyclopropyl]ethynyl}phenyl)-1,2-oxazol-3-yl]methyl}-1H-imidazol-2-yl)ethan-1-ol]	15.4	0.5 (≈ 1.38 µM)	16 (≈ 44 µM)	0.25 (≈ 0.688 µM)	4.44
C[C@H](O)c1nccn1Cc1cc(-c2ccc(C#CC3CC3N)cc2)on1 (stereo in doubt) [Compound 9, (1S)-1-{1-[(5-(4-[(trans-2-aminocyclopropyl)ethynyl]phenyl}-1,2-oxazol-3-yl)methyl]-1H-imidazol-2-yl}ethan-1-ol]	183	4 (≈ 11.5 µM)	16 (≈ 45.9 µM)		22.3
C[C@H](O)c1nccn1Cc1cc(-c2ccc(C#CCCCO)cc2)on1 [Compound 1, 5-{4-[3-({2-[(1S)-1-Hydroxyethyl]-1H-imidazol-1-yl}methyl)-1,2-oxazol-5-yl]phenyl}pent-4-yn-1-ol]	51	2 (≈ 5.69 µM)	64 (≈ 182 µM)	1 (≈ 2.85 µM)	13.2
C[C@H](O)c1nccn1Cc1cc(-c2ccc(C#CCCCO)c(F)c2)on1 [Compound 2, 5-{2-fluoro-4-[3-({2-[(1S)-1-hydroxyethyl]-1H-imidazol-1-yl}methyl)-1,2-oxazol-5-yl]phenyl} pent-4-yn-1-ol]	16.9	2 (≈ 5.41 µM)	64 (≈ 173 µM)	1 (≈ 2.71 µM)	6.92
C[C@H](O)c1nccn1Cc1cc(-c2ccc(C#CCCCO)cc2F)on1 [Compound 3, 5-{3-fluoro-4-[3-({2-[(1S)-1-hydroxyethyl]-1H-imidazol-1-yl}methyl)-1,2-oxazol-5-yl]phenyl}pent-4-yn-1-ol]	16.1	1 (≈ 2.71 µM)	32 (≈ 86.6 µM)	0.5 (≈ 1.35 µM)	4.36
C[C@H](O)c1nccn1Cc1cc(-c2ccc(C#CC3(N)CC3)cc2)on1 [Compound 4, (1S)-1-{1-[(5-{4-[(1-Aminocyclopropyl)ethynyl]phenyl}-1,2-oxazol-3-yl)methyl]-1H-imidazol-2-yl}ethan-1-ol]		1 (≈ 2.87 µM)	64 (≈ 184 µM)	0.5 (≈ 1.44 µM)	16.7
Cc1cc(C#CCCCO)ccc1-c1cc(Cn2ccnc2[C@H](C)O)no1 [Compound 5, 5-{4-[3-({2-[(1S)-1-hydroxyethyl]-1H-imidazol-1-yl}methyl)-1,2-oxazol-5-yl]-3-methylphenyl} pent-4-yn-1-ol]		16 (≈ 43.8 µM)	> 64		132
C[C@H](O)c1nccn1Cc1cc(-c2ccc(C#CCCO)cc2)on1 [Compound 6, 4-{4-[3-({2-[(1S)-1-hydroxyethyl]-1H-imidazol-1-yl}methyl)-1,2-oxazol-5-yl]phenyl}but-3-yn-1-ol]		4 (≈ 11.9 µM)	64 (≈ 190 µM)		22.6
C[C@H](O)c1nccn1Cc1cc(-c2ccc(C#C[C@@H]3[C@H]4CNC[C@@H]34)cc2)on1 [Compound 10, (1S)-1-(1-{[5-(4-{[(1R,5S,6s)-3-Azabicyclo[3.1.0]hexan-6-yl]ethynyl}phenyl)-1,2-oxazol-3-yl]methyl}-1H-imidazol-2-yl)ethan-1-ol]	123		8 (≈ 21.4 µM)		14.3
C[C@H](O)c1nccn1Cc1cc(-c2ccc(C#C[C@@H]3[C@H]4CN(C[C@H](O)CO)C[C@@H]34)cc2)on1 [Compound 11, (2S)-3-[(1R,5S,6R)-6-({4-[3-({2-[(1S)-1-Hydroxyethyl]-1H-imidazol-1-yl}methyl)-1,2-oxazol-5-yl]phenyl}ethynyl)-3-azabicyclo[3.1.0]hexan-3-yl]propan-1,2-diol]	102	2 (≈ 4.46 µM)	8 (≈ 17.8 µM)	1 (≈ 2.23 µM)	3.78
C[C@H](O)c1nccn1Cc1cc(-c2ccc(C#CC3CN(C)C3)cc2)on1 [Compound 12, (1S)-1-{1-[(5-{4-[(1-Methylazetidin-3-yl)ethynyl]phenyl}-1,2-oxazol-3-yl)methyl]-1H-imidazol-2-yl}ethan-1-ol]		16 (≈ 44.1 µM)	32 (≈ 88.3 µM)		46
C[C@H](O)c1nccn1Cc1cc(-c2ccc(C#CC3CN(C[C@H](O)CO)C3)cc2)on1 [Compound 13]	651	16 (≈ 37.9 µM)	32 (≈ 75.7 µM)		21.9
C[C@H](O)c1nccn1Cc1cc(-c2c(F)cc(C#CCCCO)cc2F)on1 [Compound 14, 5-{3,5-Difluoro-4-[3-({2-[(1S)-1-hydroxyethyl]-1H-imidazol-1-yl}methyl)-1,2-oxazol-5-yl]phenyl}pent-4-yn-1-ol]		8 (≈ 20.7 µM)	64 (≈ 165 µM)		15.4
C[C@H](O)c1nccn1Cc1cc(-c2ccc(C#C[C@H]3C[C@@H]3[C@@H](O)CN)cc2)on1 [Compound 15, (R)-2-Amino-1-((1 S,2S)-2-((4-(3-((2-((S)-1-hydroxyethyl)-1H-imidazol-1-yl)methyl)isoxazol-5-yl)phenyl)ethynyl)cyclopropyl)ethanol]		64 (≈ 163 µM)	16 (≈ 40.8 µM)		8.4
C[C@H](O)c1nccn1[C@H](CO)c1cc(-c2ccc(C#CCCCO)cc2)on1 [Compound 16, 5-(4-{3-[(1S)-2-Hydroxy-1-{2-[(1S)-1-hydroxyethyl]-1H-imidazol-1-yl}ethyl]-1,2-oxazol-5-yl}phenyl)pent-4-yn-1-ol]		4 (≈ 10.5 µM)	16 (≈ 41.9 µM)		2.6
C[C@H](O)c1nccn1Cc1cc(-c2ccc(C#C[C@@H]3[C@H]4CN(CCO)C[C@@H]34)cc2)on1 [Compound 19, (1S)-1-(1-{[5-(4-{[(1R,5S,6s)-3-(2-Hydroxyethyl)-3-azabicyclo[3.1.0]hexan-6-yl]ethynyl}phenyl)-1,2-oxazol-3-yl]methyl}-1H-imidazol-2-yl)ethan-1-ol]	123	1 (≈ 2.39 µM)	8 (≈ 19.1 µM)	0.5 (≈ 1.19 µM)	2.03
